Our source for the Kd values is article PMC11486602 (The New phytologist, 2024).

The term Kd denotes the concentration at which binding is half-saturated. Read a low Kd as higher affinity.

Assay [1] concerns the target PROTODERMAL FACTOR2 (PDF2), pdf2(START)^L467P (Arabidopsis thaliana, UniProt Q93V99, L467P). In words: microscale thermophoresis with […] DOPC/LysoPC […] liposomes. Type of assay: binding. A general note: MST reads how a fluorescent partner responds to local heating, with and without ligand.
For assay [2], the target named is T1, PROTODERMAL FACTOR2 (PDF2) (Arabidopsis thaliana, UniProt Q93V99).
T1 sequence (Q93V99 244-476 limits assumed): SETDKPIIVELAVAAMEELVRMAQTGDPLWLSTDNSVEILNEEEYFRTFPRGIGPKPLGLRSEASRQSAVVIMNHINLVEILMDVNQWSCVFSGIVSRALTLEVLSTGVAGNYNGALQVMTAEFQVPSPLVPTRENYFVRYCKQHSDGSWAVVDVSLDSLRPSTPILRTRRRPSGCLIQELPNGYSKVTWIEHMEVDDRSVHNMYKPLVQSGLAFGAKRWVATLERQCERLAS
The description is as above. Format: binding.

Chain of PROTODERMAL FACTOR2 (PDF2), pdf2(START)^L467P (Q93V99 244-476 L467P): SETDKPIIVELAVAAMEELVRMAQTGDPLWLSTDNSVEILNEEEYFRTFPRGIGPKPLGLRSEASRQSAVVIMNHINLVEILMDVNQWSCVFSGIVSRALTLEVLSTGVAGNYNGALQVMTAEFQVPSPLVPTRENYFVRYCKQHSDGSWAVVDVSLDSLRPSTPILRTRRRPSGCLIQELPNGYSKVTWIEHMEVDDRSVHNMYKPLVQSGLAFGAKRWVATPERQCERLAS

For LysoPC 18:1, the Kd in assay [1] came out at 200 µM; in assay [2], 17 µM.
